Reference: PubChem BioAssay (NCI)
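Five concentrations, 48 hours, 96-well plates. GI50 marks 50% less growth. The concentration for full growth arrest is given as TGI.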

Assays:
Assay in all cases: NCI anticancer screen, dose series, 48 h
[1] = test system: RXF 393 renal
[2] = test system: NCI-H23 lung
[3] = test system: PC-3 prostate
[4] = test system: SW-620 colon
[5] = test system: UO-31 renal
[6] = test system: U251 CNS
[7] = test system: MDA-MB-435
[8] = test system: T-47D breast
[9] = test system: 786-0 renal
[10] = test system: LOX IMVI melanoma
[11] = test system: NCI/ADR-RES ovarian
[12] = test system: RPMI-8226 leukemia
[13] = test system: EKVX NSCLC
[14] = test system: COLO 205 colon
[15] = test system: SK-MEL-2 melanoma
[16] = test system: IGROV1 ovarian
[17] = test system: SK-MEL-28 melanoma
[18] = test system: CCRF-CEM leukemia
[19] = test system: MDA-MB-231 breast
[20] = test system: DU-145 prostate
[21] = test system: K-562 leukemia
[22] = test system: HCT-116 colon
[23] = test system: OVCAR-3 ovarian
[24] = test system: CAKI-1 renal
[25] = test system: A549 NSCLC
[26] = test system: M14 melanoma
[27] = test system: HOP-92 NSCLC
[28] = test system: SR leukemia
[29] = test system: SF-539 CNS
[30] = test system: HCT-15 colon
[31] = test system: BT-549 breast
[32] = test system: TK-10 renal
[33] = test system: A498 renal
[34] = test system: NCI-H226 lung
[35] = test system: HOP-62 NSCLC
[36] = test system: HL-60(TB) leukemia
[37] = test system: HCC-2998 colon
[38] = test system: SN12C renal
[39] = test system: SF-295 CNS
[40] = test system: UACC-62 melanoma
[41] = test system: MOLT-4 leukemia
[42] = test system: SF-268 CNS
[43] = test system: NCI-H522 lung
[44] = test system: HS 578T breast
[45] = test system: MCF7 breast
[46] = test system: SNB-75 CNS
[47] = test system: SK-MEL-5 melanoma
[48] = test system: SK-OV-3 ovarian
[49] = test system: OVCAR-8 ovarian
[50] = test system: MALME-3M melanoma
[51] = test system: UACC-257 melanoma
[52] = test system: KM12 colon
[53] = test system: MDA-MB-468 breast
[54] = test system: SNB-19 CNS
[55] = test system: ACHN renal

SMILES: Cc1noc2c(Cc3ccccc3)nn(CC(=O)N/N=C/c3ccc(Br)cc3)c(=O)c12
- GI50 [1]: 3.04 µM
- TGI [1]: 12.6 µM
- GI50 [2]: 9.2 µM
- TGI [2]: 41.3 µM
- GI50 [3]: 29.8 µM
- TGI [3]: > 100 µM
- GI50 [4]: > 100 µM
- TGI [4]: > 100 µM
- GI50 [5]: 1.91 µM
- TGI [5]: 4.67 µM
- GI50 [6]: 3.48 µM
- TGI [6]: 30 µM
- GI50 [7]: > 100 µM
- TGI [7]: > 100 µM
- GI50 [8]: 1.96 µM
- TGI [8]: 5.46 µM
- GI50 [9]: 1.89 µM
- TGI [9]: 4.17 µM
- GI50 [10]: 8.98 µM
- TGI [10]: > 100 µM
- GI50 [11]: 5.64 µM
- TGI [11]: > 100 µM
- GI50 [12]: 29.1 µM
- TGI [12]: > 100 µM
- GI50 [13]: 31.3 µM
- TGI [13]: > 100 µM
- GI50 [14]: 7.46 µM
- TGI [14]: > 100 µM
- GI50 [15]: 17.5 µM
- TGI [15]: 33.7 µM
- GI50 [16]: 13.5 µM
- TGI [16]: 38.7 µM
- GI50 [17]: > 100 µM
- TGI [17]: > 100 µM
- GI50 [18]: 30.5 µM
- TGI [18]: > 100 µM
- GI50 [19]: 3.34 µM
- TGI [19]: 12.7 µM
- GI50 [20]: 76.2 µM
- TGI [20]: > 100 µM
- GI50 [21]: 25.7 µM
- TGI [21]: > 100 µM
- GI50 [22]: 3.31 µM
- TGI [22]: 17.7 µM
- GI50 [23]: 3.36 µM
- TGI [23]: > 100 µM
- GI50 [24]: 5.6 µM
- TGI [24]: 25.2 µM
- GI50 [25]: 6.34 µM
- TGI [25]: > 100 µM
- GI50 [26]: 29.8 µM
- TGI [26]: > 100 µM
- GI50 [27]: 4.3 µM
- TGI [27]: 21.5 µM
- GI50 [28]: 14.7 µM
- TGI [28]: > 100 µM
- GI50 [29]: 15.8 µM
- TGI [29]: 36.8 µM
- GI50 [30]: > 100 µM
- TGI [30]: > 100 µM
- GI50 [31]: 17.7 µM
- TGI [31]: 49.4 µM
- GI50 [32]: 3.01 µM
- TGI [32]: 9.71 µM
- GI50 [33]: 1.73 µM
- TGI [33]: 3.34 µM
- GI50 [34]: 2.33 µM
- TGI [34]: 6.11 µM
- GI50 [35]: 3.37 µM
- TGI [35]: 13.1 µM
- GI50 [36]: > 100 µM
- TGI [36]: > 100 µM
- GI50 [37]: > 100 µM
- TGI [37]: > 100 µM
- GI50 [38]: 3.27 µM
- TGI [38]: > 100 µM
- GI50 [39]: 5.79 µM
- TGI [39]: 21.1 µM
- GI50 [40]: 13.2 µM
- TGI [40]: 49.6 µM
- GI50 [41]: 50.6 µM
- TGI [41]: > 100 µM
- GI50 [42]: 22.8 µM
- TGI [42]: > 100 µM
- GI50 [43]: 12.9 µM
- TGI [43]: 88.1 µM
- GI50 [44]: 3.06 µM
- TGI [44]: 17.7 µM
- GI50 [45]: 77 µM
- TGI [45]: > 100 µM
- GI50 [46]: 1.74 µM
- TGI [46]: 6.96 µM
- GI50 [47]: 28.4 µM
- TGI [47]: > 100 µM
- GI50 [48]: 3.19 µM
- TGI [48]: 9.49 µM
- GI50 [49]: 4.62 µM
- TGI [49]: > 100 µM
- GI50 [50]: 14.5 µM
- TGI [50]: 44.3 µM
- GI50 [51]: > 100 µM
- TGI [51]: > 100 µM
- GI50 [52]: > 100 µM
- TGI [52]: > 100 µM
- GI50 [53]: 9.61 µM
- TGI [53]: 35.9 µM
- GI50 [54]: 13.3 µM
- TGI [54]: 30.2 µM
- GI50 [55]: 2.71 µM
- TGI [55]: 6.91 µM
